Source: article PMC9415646, “Improving Aqueous Solubility and In Vitro Pharmacokinetic Properties of the 3-Nitroimidazo[1,2-a]pyridine Antileishmanial Pharmacophore” (Pharmaceuticals, 2022)
In brackets after ≈: the same amount, converted by molar mass.

Columns and labels:
[1] = system: L. infantum intracellular amastigotes; experiment: Antileishmanial activity on L. infantum intracellular (intra-THP1 macrophage) amastigotes; type: cell-based; conditions: Leishmania infantum, THP-1; intramacrophage (THP1) amastigotes, 120 h; read-out: EC50 L. infantum Intra. Ama.
Method: The undifferentiated THP1 human monocyte cells (acute monocytic leukemia cell line purchased from ATCC, ref TIB-202) were grown in RPMI 1640 medium (Life Technologies, Saint-Aubin, France) supplemented with 10% FCS (Life Technologies, Saint-Aubin, France), 100 U/mL penicillin, 100 µg/mL streptomycin and 2 mM L-glutamine at 37 °C, 5% CO2. The culture was maintained between 3.10^5 and 1.10^6 cells/mL. The in vitro evaluation of the antileishmanial activity on intracellular amastigote forms of the tested compound was assessed as below.
Briefly, 200 μL of THP-1 cells with Phorbol 12-Myristate 13-Acetate (final concentration 50 ng/mL) were seeded in 96-well plates at an average density of 0.77 × 10^5 cells/mL and incubated for 96 h at 37 °C, 5% CO2. Promastigotes were centrifuged at 3000 rpm for 10 min and the supernatant replaced by the same volume of complete RPMI pH 5.4 and incubated for 24 h at 27 °C. Differentiated THP-1 cells were then infected by acidified promastigotes with an infection ratio of twenty parasites for one macrophage and incubated for 24 h at 37 °C, 5% CO2.
• Luciferase activity and determination of EC50 were performed as above.

[2] = Cytotoxicity evaluation on HepG2 cell line (MTT); type: cell-based; conditions: human, HepG2 cells
Method: The tested molecules’ cytotoxicity was assessed according to the method of Mosmann with slight modifications. […] Triplicate assays were performed for each sample. Each plate-well was then microscope-examined to detect possible precipitate formation before the medium was aspirated from the wells. 100 µL of MTT (3-(4,5-dimethyl-2-thiazolyl)-2,5-diphenyl-2H-tetrazolium bromide) solution (0.5 mg/mL in medium without FCS) were then added to each well. […] Plates were shaken vigorously (700 rpm) for 10 min. The absorbance was measured at 570 nm with 630 nm as reference wavelength using a BIO-TEK ELx808 Absorbance Microplate Reader. DMSO was used as blank and doxorubicin (purchased from Sigma Aldrich) as positive control. Cell viability was calculated as percentage of control (cells incubated without compound). […] (Palo Alto, CA, USA)). CC50 values represent the mean value calculated from three separate experiments.

[3] = Thermodynamic solubility at pH 7.4 (miniaturized shake-flask); type: physicochemical; conditions: pH 7.4, PBS, 23 °C; for solubility thermodynamic at 24 h: phosphate buffer (PBS), aqueous buffer, kinetic from dmso stock
Method: Thermodynamic solubility at pH 7.4 of compounds was determined according to a miniaturized shake-flask method (Organisation for Economic Cooperation and Development guideline n°105). Phosphate Buffer solutions (pH 7.4, […], ionic strength […]) were prepared from Na2HPO4, KH2PO4 and KCl (Sigma Aldrich, Saint Quentin Fallavier, France); 10 µL of 20 mM stock solution were added to 5 mL glass tubes containing […] buffer (n = 3). The tubes were briefly sonicated and shacked by inversion during 24 h at 23 °C. Then, the tube contents were placed in a microtube which was centrifuged at 12,225× g for 10 min; 100 µL supernatant were mixed with 100 µL acetonitrile in a Greiner UV microplate. Standard solutions were prepared extemporaneously, diluting 20 mM DMSO stock solutions at […]; 5 µL of each working solution were diluted with 995 µL buffer and 100 µL were then mixed in microplates with 100 µL acetonitrile so as to ensure that the final proportions of each solvent in standard solutions and samples remained unchanged. Solubility at pH 7.4 was determined with an Infinite M200Pro (Tecan, Lyon, France) microplate reader in spectrophotometric mode (230 to 450 nm) from the specific λmax of each compound. The calibration curve was obtained from the […] standard solutions of tested compounds at 0, 25, 50, and 100 µM in a 50:50 (vol/vol) mixture of buffer with acetonitrinile/DMSO (99:1; vol/vol). Calibration curves were linear with R^2 > 0.99.

[4] = Cytotoxicity on THP-1 cell line (MTT); type: cell-based; conditions: human, THP-1 cells, THP1 cell line
Method: The plates were incubated for 72 h at 37 °C. Each well plate was then microscope-examined for detecting possible precipitate formation before the medium was aspirated from the wells. 100 µL of MTT solution (0.5 mg/mL in medium) were then added to each well. Cells were incubated for 2 h at 37 °C. […] Plates were shaken vigorously (300 rpm) for 10 min. The absorbance was measured at 570 nm using a BIO-TEK ELx808 Absorbance Microplate Reader. DMSO was used as blank and doxorubicin (purchased from Sigma Aldrich) as positive control. Cell viability was calculated as percentage of control (cells incubated with DMSO). […] (Palo Alto, CA, USA). CC50 values represent the mean value calculated from three separate experiments.

[5] = Mouse microsomal stability; type: in vitro ADME; conditions: female, CD-1, pH 7.4; mouse liver microsomes; read-out: Mouse Microsomal Stability T1/2
Method: The tested product and propranolol, used as reference, were incubated in duplicate (reaction volume of 0.5 mL) with female mouse microsomes (CD-1, 20 mg/mL, BD Gentest™) at 37 °C in a 50 mM phosphate buffer, pH 7.4, in the presence of MgCl2 (5 mM), NADP (1 mM), glucose-6-phosphate dehydrogenase (0.4 U/mL) and glucose-6-phosphate (5 mM). […] After centrifugation at 10,000× g, 10 min, 4 °C, the supernatants were maintained at 4 °C for immediate analysis or placed at -80 °C for later analysis. Controls (t0 and tfinal) in triplicate were prepared by incubation of the internal standard with microsomes denatured by acetonitrile. […] The mobile phases were (A) ammonium acetate 10 mM and (B) acetonitrile with 0.1% formic acid. The injection volume was 1 µL and the flow rate 600 µL/min. […] Each compound was quantified by converting the average of the ratios of the analyte/internal standard surfaces to the percentage of product consumed. The ratio of the control at t0 corresponded to 0% of product consumed. The half-life (T1/2) of each compound in the presence of microsomes was calculated according to the equation: t1/2=ln(2)/k , where k is the first-order degradation constant (the slope of the logarithm of compound concentration versus incubation time). The intrinsic clearance in vitro (Clint expressed in μL/min/mg) is calculated according to the equation: Clint=dose/AUC∞/[microsomes] where “dose” is the initial concentration of product in the sample, AUC∞ is the area under the concentration-time curve extrapolated to infinity and [microsomes] is the microsome concentration expressed in mg/µL.

| SMILES | EC50 [1] [µM] | CC50 at 72 h [2] [µM] | melting point [°C] | solubility thermodynamic at 24 h [3] [µM] | CC50 at 72 h [4] [µM] | half-life [5] [min] | Thermodynamic Solubility at pH 7.4 in PBS ([3]; 24 h) [µM] |
| --- | --- | --- | --- | --- | --- | --- | --- |
| COc1ccc(S(=O)(=O)Cc2nc3c(Sc4ccc(Cl)cc4)cc(Cl)cn3c2[N+](=O)[O-])cc1 [Compound 3f, 6-Chloro-8-[(4-Chlorophenyl)thio]-2-[(4-Methoxyphenylsulfonyl)methyl]-3-Nitroimidazo[1,2-a]pyridine] | 0.9 ± 0.1 | > 3.9 | 214 | < 2 | > 50 | – | – |
| CSc1ccc(OCc2ncc([N+](=O)[O-])n2C)cc1 [Fexinidazole, reference compound] | 15.9 ± 3.2 | > 100 | – | – | > 100 | – | – |
| COc1ccc(S(=O)(=O)Cc2nc3c(Br)cc(Cl)cn3c2[N+](=O)[O-])cc1 [Compound 2g, 8-Bromo-6-Chloro-2-[(4-Methoxyphenylsulfonyl)methyl]-3-Nitroimidazo[1,2-a]pyridine] | 2.2 ± 0.1 | 3.9 ± 1.3 | 226 | 5.7 ± 1.3 (≈ 2.63 µg/mL) | > 100 | – | – |
| O=[N+]([O-])c1c(CS(=O)(=O)c2ccc(O)cc2)nc2c(Sc3ccc(Cl)cc3)cc(Cl)cn12 [Compound 3a, 4-{[(6-Chloro-8-[(4-Chlorophenyl)thio]-3-Nitroimidazo[1,2-a]pyridin-2-yl)methyl]sulfonyl}phenol] | 2.7 ± 0.5 | 22.3 ± 2.5 | 241 | – | 28.2 ± 0.1 | – | – |
| O=[N+]([O-])c1c(CS(=O)(=O)c2ccc(Cl)cc2)nc2c(Sc3ccc(Cl)cc3)cc(Cl)cn12 [Compound 3b, 6-Chloro-2-[(4-Chlorophenylsulfonyl)methyl]-8-[(4-Chlorophenyl)thio]-3-Nitroimidazo[1,2-a]pyridine] | 0.7 ± 0.1 | 8.9 ± 1.3 | 221 | < 2 | > 15.6 | 4.5 | – |
| O=[N+]([O-])c1c(CS(=O)(=O)c2ccccc2)nc2c(Br)cc(Cl)cn12 [Hit A, 8-Bromo-6-chloro-3-nitro-2-(phenylsulfonylmethyl)imidazo[1,2-a]pyridine, reference compound] | 2.1 ± 0.1 | > 15.6 | – | 6.9 ± 1.5 (≈ 2.97 µg/mL) | > 100 | 11 | – |
| O=[N+]([O-])c1c(CS(=O)(=O)CCC(F)(F)F)nc2c(Sc3ccc(Cl)cc3)cc(Cl)cn12 [Compound 3i, 6-Chloro-8-[(4-Chlorophenyl)thio]-3-Nitro-2-[(3,3,3-Trifluoropropylsulfonyl)methyl]imidazo[1,2-a]pyridine] | 1.2 ± 0.1 | > 6.2 | 183 | 12.4 ± 3 (≈ 6.38 µg/mL) | > 50 | 9.1 | – |
| O=[N+]([O-])c1c(CS(=O)(=O)CCC(F)(F)F)nc2c(-c3ccncc3)cc(Cl)cn12 [Compound 7, 6-Chloro-3-Nitro-8-(Pyridin-4-yl)-2-[(3,3,3-Trifluoropropylsulfonyl)methyl]imidazo[1,2-a]pyridine] | 3.7 ± 0.4 | > 100 | 184 | 31.1 ± 3.7 (≈ 14 µg/mL) | > 100 | > 40 | – |
| O=[N+]([O-])c1c(CS(=O)(=O)c2ccc(C(F)(F)F)cc2)nc2c(Sc3ccc(Cl)cc3)cc(Cl)cn12 [Compound 3d, 6-Chloro-8-[(4-Chlorophenyl)thio]-3-Nitro-2-[(4-Trifluoromethylphenylsulfonyl)methyl]imidazo[1,2-a]pyridine] | 4.4 ± 0.2 | > 3.9 | 222 | 2.5 ± 0.7 (≈ 1.41 µg/mL) | > 50 | – | – |
| O=[N+]([O-])c1c(CS(=O)(=O)c2ccccc2)nc2c(Sc3ccc(Cl)cc3)cc(Cl)cn12 [Hit B, reference compound] | 3.2 ± 0.1 | > 100 | – | – | > 62.5 | 3 | 1.4 ± 0.5 |
| O=[N+]([O-])c1c(CS(=O)(=O)C2CC2)nc2c(Sc3ccc(Cl)cc3)cc(Cl)cn12 [Compound 3h, 6-Chloro-8-[(4-Chlorophenyl)thio]-2-[(cyclopropylsulfonyl)methyl]-3-Nitroimidazo[1,2-a]pyridine] | 3.7 ± 0.2 | 22.3 ± 2.5 | 196 | 3 ± 0.4 (≈ 1.38 µg/mL) | > 62.5 | – | – |
| O=[N+]([O-])c1c(CS(=O)(=O)c2ccc(OC(F)(F)F)cc2)nc2c(Sc3ccc(Cl)cc3)cc(Cl)cn12 [Compound 3e, 6-Chloro-8-[(4-Chlorophenyl)thio]-3-Nitro-2-[(4-Trifluoromethoxyphenylsulfonyl)methyl]imidazo[1,2-a]pyridine] | 1.6 ± 0.1 | > 12.5 | 173 | 64.7 ± 7.3 (≈ 37.4 µg/mL) | > 100 | – | – |
| O=[N+]([O-])c1c(CS(=O)(=O)c2ccc(OC(F)(F)F)cc2)nc2c(Br)cc(Cl)cn12 [Compound 2f, 8-Bromo-6-Chloro-3-Nitro-2-[(4-Trifluoromethoxyphenylsulfonyl)methyl]imidazo[1,2-a] pyridine] | 4.2 ± 0.3 | > 25 | 178 | 8.6 ± 2.3 (≈ 4.43 µg/mL) | > 100 | – | – |
| O=[N+]([O-])c1c(CS(=O)(=O)CCC(F)(F)F)nc2c(S(=O)(=O)c3ccc(Cl)cc3)cc(Cl)cn12 [Compound 6b, 6-Chloro-8-[(4-Chlorophenyl)sulfonyl]-3-Nitro-2-[(3,3,3-Trifluoropropylsulfonyl)methyl] imidazo[1,2-a]pyridine] | 8.3 ± 0.8 | > 10 | 233 | – | > 100 | 7.9 | – |
